Results reported in ChEMBL document CHEMBL1130103, “Doxoform and Daunoform: anthracycline-formaldehyde conjugates toxic to resistant tumor cells” (J Med Chem, 1997).

Legend:
MCF7 = experiment: compound was tested in vitro for inhibition activity against a sensitive human breast carcinoma line cells.; format: functional, cell-based
NCI/ADR-RES = experiment: compound was tested in vitro for inhibition activity against doxorubicin resistant counterpart of human breast carcinoma line cells.; format: functional, cell-based

IC50 (MCF7) | Structure (SMILES) | IC50 (NCI/ADR-RES)
8 nM equiv l-1 | COc1cccc2c1C(=O)c1c(O)c3c(c(O)c1C2=O)C[C@@](O)(C(C)=O)C[C@@H]3OC1CC2C(OCN2CN2COC3C(C)OC(O[C@H]4C[C@](O)(C(C)=O)Cc5c(O)c6c(c(O)c54)C(=O)c4c(OC)cccc4C6=O)CC32)C(C)O1 (stereo partly drawn) [DAUNOFORM] | 10 nM equiv l-1
60 nM equiv l-1 | COc1cccc2c1C(=O)c1c(O)c3c(c(O)c1C2=O)C[C@@](O)(C(C)=O)C[C@@H]3O[C@H]1C[C@H](N)[C@H](O)[C@H](C)O1 [DAUNORUBICIN] | 2000 nM equiv l-1
300 nM equiv l-1 | COc1cccc2c1C(=O)c1c(O)c3c(c(O)c1C2=O)C[C@@](O)(C(=O)CO)C[C@@H]3O[C@H]1C[C@H](N)[C@H](O)[C@H](C)O1 [DOXORUBICIN] | 10000 nM equiv l-1

Structure (SMILES) | IC50 (MCF7) | IC50 (NCI/ADR-RES)
COc1cccc2c1C(=O)c1c(O)c3c(c(O)c1C2=O)C[C@@](O)(C(=O)CO)C[C@@H]3OC1CC2C(OCN2CN2COC3C(C)OC(O[C@H]4C[C@](O)(C(=O)CO)Cc5c(O)c6c(c(O)c54)C(=O)c4c(OC)cccc4C6=O)CC32)C(C)O1 (stereo partly drawn) [DOXOFORM] | 2 nM equiv l-1 | 1 nM equiv l-1
